Experimental data as given in US20210255193A1, “LYSINE REACTIVE PROBES AND USES THEREOF” (The Scripps Research Institute, priority 2017, published 2021).

Columns and labels:
Experiment in all cases: competitive isoTOP-ABPP
Type in all cases: binding
[1] = target: T1, DYNC1H1 Cytoplasmic dynein 1 heavy chain 1 (Homo sapiens, UniProt Q14204); conditions: for isoTOP-ABPP ratio (R) at liganded lysine Q14204_K1649: 50 uM, in vitro, sol, 231
T1 construct: isoTOP-ABPP experiments performed in cell lysates (in vitro); endogenous in cells; host or cells: soluble proteome of human cancer cell lines (MDA-MB-231, Ramos, Jurkat)
T1 sequence (Q14204 whole entry): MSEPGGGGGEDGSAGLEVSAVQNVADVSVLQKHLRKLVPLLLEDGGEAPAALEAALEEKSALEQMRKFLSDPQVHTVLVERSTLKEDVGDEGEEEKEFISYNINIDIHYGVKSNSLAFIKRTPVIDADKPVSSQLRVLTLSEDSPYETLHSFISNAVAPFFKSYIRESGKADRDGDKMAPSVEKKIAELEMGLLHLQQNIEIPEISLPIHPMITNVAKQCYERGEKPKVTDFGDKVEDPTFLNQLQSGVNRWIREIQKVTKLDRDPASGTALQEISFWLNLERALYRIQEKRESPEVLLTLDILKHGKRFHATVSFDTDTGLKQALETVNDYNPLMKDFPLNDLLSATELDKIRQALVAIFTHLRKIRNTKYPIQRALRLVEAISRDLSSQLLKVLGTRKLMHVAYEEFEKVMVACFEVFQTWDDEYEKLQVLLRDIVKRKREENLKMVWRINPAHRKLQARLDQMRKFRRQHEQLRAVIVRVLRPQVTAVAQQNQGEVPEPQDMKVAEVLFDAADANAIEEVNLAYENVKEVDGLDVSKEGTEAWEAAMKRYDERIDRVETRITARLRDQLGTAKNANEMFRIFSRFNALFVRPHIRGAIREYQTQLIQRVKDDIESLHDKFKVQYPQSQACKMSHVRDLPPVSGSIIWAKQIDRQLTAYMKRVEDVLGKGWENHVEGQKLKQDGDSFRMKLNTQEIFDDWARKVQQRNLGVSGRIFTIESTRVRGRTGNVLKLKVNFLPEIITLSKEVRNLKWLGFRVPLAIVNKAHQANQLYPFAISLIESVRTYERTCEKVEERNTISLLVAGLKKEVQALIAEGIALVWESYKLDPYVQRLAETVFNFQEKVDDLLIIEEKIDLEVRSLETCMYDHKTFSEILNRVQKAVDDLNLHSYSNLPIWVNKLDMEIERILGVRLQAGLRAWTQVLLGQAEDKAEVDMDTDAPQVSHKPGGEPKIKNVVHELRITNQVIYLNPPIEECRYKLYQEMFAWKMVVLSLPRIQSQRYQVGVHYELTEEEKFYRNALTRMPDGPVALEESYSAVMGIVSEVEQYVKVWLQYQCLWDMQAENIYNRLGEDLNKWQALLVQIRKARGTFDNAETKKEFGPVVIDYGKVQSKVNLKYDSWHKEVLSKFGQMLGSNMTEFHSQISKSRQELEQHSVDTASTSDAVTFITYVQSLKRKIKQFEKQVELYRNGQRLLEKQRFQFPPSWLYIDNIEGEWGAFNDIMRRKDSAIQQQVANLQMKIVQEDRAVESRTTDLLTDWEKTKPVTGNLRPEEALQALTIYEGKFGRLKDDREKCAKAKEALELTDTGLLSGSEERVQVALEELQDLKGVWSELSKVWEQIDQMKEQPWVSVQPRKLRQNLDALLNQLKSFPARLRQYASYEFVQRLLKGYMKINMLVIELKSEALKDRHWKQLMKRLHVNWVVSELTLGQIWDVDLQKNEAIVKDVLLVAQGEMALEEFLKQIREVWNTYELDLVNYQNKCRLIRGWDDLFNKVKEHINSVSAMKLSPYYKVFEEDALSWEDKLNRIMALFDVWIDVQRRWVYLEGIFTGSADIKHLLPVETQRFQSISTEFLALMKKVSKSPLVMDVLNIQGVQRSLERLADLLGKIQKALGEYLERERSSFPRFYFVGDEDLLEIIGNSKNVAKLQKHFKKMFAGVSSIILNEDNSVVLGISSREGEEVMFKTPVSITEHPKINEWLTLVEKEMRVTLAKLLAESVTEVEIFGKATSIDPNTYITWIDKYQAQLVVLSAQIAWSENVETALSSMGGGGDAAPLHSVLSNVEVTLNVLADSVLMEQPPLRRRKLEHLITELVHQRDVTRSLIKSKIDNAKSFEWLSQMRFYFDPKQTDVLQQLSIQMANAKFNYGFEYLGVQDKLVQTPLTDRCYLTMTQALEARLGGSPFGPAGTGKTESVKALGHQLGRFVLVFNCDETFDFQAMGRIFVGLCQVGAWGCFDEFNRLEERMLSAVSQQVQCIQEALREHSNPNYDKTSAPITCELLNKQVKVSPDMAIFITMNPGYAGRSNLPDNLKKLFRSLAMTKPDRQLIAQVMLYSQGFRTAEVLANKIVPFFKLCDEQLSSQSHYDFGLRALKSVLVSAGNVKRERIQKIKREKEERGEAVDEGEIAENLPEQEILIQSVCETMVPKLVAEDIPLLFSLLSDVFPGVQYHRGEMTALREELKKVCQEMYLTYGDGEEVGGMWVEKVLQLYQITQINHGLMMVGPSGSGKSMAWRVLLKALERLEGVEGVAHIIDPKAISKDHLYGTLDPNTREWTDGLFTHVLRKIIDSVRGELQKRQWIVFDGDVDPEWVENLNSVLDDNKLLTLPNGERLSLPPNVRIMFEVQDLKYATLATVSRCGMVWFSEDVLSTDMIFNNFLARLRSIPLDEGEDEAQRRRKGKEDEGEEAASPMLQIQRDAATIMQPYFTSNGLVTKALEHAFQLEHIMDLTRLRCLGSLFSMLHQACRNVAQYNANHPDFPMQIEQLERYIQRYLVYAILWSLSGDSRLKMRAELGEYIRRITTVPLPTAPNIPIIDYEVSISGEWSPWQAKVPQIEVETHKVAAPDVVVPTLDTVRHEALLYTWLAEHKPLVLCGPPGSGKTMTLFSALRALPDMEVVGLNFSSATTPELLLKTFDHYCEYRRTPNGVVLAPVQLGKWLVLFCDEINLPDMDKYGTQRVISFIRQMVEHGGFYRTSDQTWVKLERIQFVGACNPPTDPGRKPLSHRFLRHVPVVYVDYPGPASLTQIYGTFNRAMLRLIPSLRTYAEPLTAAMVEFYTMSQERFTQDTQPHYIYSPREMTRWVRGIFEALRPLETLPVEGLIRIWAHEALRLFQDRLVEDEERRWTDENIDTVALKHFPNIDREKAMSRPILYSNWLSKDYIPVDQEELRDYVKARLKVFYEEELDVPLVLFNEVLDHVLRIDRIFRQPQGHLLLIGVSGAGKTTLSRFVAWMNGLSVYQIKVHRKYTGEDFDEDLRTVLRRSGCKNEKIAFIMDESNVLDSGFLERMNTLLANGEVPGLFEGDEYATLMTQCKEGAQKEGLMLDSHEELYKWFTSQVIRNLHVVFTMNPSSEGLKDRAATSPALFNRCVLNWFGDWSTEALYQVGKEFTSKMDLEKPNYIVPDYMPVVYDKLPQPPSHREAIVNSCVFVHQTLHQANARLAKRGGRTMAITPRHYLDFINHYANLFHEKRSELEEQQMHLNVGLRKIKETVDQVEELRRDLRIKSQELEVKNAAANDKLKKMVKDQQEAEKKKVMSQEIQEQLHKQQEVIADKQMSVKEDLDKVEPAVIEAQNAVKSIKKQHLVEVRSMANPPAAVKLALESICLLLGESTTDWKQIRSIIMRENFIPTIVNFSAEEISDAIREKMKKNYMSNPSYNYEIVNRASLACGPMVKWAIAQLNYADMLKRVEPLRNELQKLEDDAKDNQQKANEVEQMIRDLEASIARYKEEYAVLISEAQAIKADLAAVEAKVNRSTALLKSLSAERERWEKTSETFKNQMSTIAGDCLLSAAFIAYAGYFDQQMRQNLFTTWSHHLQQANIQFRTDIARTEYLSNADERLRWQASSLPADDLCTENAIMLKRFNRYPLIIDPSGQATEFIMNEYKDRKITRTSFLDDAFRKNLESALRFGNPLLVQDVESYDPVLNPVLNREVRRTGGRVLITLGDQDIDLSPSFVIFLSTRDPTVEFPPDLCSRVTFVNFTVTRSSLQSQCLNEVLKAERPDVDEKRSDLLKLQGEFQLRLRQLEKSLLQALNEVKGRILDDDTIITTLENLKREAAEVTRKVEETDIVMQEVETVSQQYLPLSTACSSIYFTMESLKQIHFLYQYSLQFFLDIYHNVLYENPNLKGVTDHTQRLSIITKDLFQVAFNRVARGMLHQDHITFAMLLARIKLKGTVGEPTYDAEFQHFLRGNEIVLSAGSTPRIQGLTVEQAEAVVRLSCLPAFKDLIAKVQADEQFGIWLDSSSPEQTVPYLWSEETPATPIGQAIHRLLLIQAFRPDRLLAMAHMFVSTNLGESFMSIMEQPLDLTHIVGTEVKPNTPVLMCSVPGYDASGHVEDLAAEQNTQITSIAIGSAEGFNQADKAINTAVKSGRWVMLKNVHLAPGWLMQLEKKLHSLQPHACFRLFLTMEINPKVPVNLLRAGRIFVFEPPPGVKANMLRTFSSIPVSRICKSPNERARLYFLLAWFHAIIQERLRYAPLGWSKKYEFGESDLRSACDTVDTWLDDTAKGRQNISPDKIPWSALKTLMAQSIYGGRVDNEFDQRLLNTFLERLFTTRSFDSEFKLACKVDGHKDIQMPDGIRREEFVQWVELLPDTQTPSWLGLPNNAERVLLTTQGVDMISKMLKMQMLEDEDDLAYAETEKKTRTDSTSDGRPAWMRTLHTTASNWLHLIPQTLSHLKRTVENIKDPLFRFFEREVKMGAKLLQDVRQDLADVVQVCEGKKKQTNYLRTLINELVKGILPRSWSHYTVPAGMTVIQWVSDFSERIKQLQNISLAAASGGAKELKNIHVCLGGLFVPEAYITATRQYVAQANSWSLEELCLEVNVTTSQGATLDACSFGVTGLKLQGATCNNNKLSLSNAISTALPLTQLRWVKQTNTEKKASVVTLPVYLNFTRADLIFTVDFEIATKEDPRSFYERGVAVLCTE
How it was run: (§1)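 Fragments at 50 μM (activated esters) or 100 μM (guanidinylating agents) were incubated with 0.5 ml lysate before probe labeling. After 0.1 mM STP-alkyne for 1 h, samples were clicked to isotopically distinct TEV tags, and R taken as DMSO-over-compound MS1 peak-area ratio.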

[2] = target: T2, TRAP1 Heat shock protein 75 kDa, mitochondrial (Homo sapiens, UniProt Q12931); conditions: for isoTOP-ABPP ratio (R) at liganded lysine Q12931_K699: 50 uM, in vitro, sol, 231
T2 construct: isoTOP-ABPP experiments performed in cell lysates (in vitro); endogenous in cells; host or cells: soluble proteome of human cancer cell lines (MDA-MB-231, Ramos, Jurkat)
T2 sequence (Q12931 60-704): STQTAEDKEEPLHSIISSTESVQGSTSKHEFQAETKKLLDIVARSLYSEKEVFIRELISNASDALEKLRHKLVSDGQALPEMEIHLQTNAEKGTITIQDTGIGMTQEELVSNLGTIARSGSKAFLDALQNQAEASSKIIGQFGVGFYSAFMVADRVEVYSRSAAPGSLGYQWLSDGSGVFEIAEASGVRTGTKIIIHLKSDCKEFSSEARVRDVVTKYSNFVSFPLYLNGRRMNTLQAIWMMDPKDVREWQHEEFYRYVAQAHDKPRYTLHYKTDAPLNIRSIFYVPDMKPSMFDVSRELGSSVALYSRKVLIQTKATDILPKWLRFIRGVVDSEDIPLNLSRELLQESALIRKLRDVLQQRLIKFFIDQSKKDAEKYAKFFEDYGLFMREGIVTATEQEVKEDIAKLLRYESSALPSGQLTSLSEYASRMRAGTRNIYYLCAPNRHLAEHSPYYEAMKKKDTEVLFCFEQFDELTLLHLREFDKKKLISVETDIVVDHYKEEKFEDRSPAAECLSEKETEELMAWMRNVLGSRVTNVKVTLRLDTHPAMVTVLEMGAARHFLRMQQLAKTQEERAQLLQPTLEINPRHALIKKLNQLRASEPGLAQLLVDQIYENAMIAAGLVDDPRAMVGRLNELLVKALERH
How it was run: as §1

STRN3 Striatin-3 = target: T3, STRN3 Striatin-3 (Homo sapiens, UniProt Q13033); conditions: for isoTOP-ABPP ratio (R) at liganded lysine Q13033_K755: 50 uM, in vitro, sol, 231
T3 construct: isoTOP-ABPP experiments performed in cell lysates (in vitro); endogenous in cells; host or cells: soluble proteome of human cancer cell lines (MDA-MB-231, Ramos, Jurkat)
T3 sequence (Q13033 1-797): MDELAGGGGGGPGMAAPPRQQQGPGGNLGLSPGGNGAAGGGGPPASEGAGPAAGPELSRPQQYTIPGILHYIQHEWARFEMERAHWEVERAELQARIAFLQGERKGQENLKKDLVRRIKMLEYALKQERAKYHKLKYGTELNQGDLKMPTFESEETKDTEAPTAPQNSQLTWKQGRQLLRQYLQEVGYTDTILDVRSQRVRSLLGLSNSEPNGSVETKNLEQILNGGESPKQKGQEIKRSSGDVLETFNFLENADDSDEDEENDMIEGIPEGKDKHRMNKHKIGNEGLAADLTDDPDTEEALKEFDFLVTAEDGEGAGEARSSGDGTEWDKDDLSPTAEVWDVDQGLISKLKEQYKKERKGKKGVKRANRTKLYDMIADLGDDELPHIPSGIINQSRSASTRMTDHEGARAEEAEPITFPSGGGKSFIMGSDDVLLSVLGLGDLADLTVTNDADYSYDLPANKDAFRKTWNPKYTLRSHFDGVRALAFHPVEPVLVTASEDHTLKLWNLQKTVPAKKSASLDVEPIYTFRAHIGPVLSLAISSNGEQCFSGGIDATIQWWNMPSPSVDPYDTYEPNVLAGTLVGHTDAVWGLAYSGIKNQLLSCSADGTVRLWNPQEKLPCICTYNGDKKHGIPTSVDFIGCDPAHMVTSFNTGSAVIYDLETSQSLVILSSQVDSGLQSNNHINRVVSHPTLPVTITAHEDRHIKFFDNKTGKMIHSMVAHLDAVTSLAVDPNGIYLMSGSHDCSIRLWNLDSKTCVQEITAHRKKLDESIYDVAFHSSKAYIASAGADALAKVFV
How it was run: as §1

| Compound | isoTOP-ABPP ratio (R) at liganded lysine Q14204_K1649 [1] | isoTOP-ABPP ratio (R) at liganded lysine Q12931_K699 [2] | isoTOP-ABPP ratio (R) at liganded lysine Q13033_K755 (STRN3 Striatin-3) | isoTOP-ABPP ratio, lysine Q14204_K1649 ([1]; 50 uM_231_sol_in vitro) | isoTOP-ABPP ratio, lysine Q12931_K699 ([2]; 50 uM_231_sol_in vitro) | isoTOP-ABPP ratio, lysine Q13033_K755 (STRN3 Striatin-3; 50 uM_231_sol_in vitro) | also measured |
| --- | --- | --- | --- | --- | --- | --- | --- |
| O=C(Oc1ccc([N+](=O)[O-])cc1[N+](=O)[O-])c1ccccc1Nc1cccc(C(F)(F)F)c1 [fragment 40, 2,4-Dinitrophenyl 2-((3-(trifluoromethyl)phenyl)amino)benzoate] | 0.8 | 0.9 | 1.2 |  |  |  |  |
| CC(C)(C)OC(=O)NCCCC(=O)Oc1ccc([N+](=O)[O-])cc1[N+](=O)[O-] [fragment 41, 2,4-Dinitrophenyl 4-((tert-butoxycarbonyl)amino)butanoate] | 1.0 | 1.3 | 1.3 |  |  |  |  |
| O=C(Oc1ccc([N+](=O)[O-])cc1[N+](=O)[O-])C(c1ccccc1)(c1ccccc1)c1ccccc1 [fragment 42, 2,4-Dinitrophenyl 2,2,2-triphenylacetate] | 0.8 | 1.0 | 0.9 |  |  |  |  |
| N#Cc1ccc(C(=O)Oc2ccc([N+](=O)[O-])cc2[N+](=O)[O-])cc1 [fragment 44, 2,4-Dinitrophenyl 4-cyanobenzoate] |  |  |  | 1.3 | 0.9 | 1.0 |  |
| O=C(CCc1ccc2c(c1)OCO2)Oc1ccc([N+](=O)[O-])cc1[N+](=O)[O-] [fragment 45, 2,4-Dinitrophenyl 3-(benzo[d][1,3]dioxol-5-yl)propanoate] |  |  |  | 1.0 | 1.4 | 1.3 |  |
| O=C(ON1C(=O)CCC1=O)c1cc(C(F)(F)F)cc(C(F)(F)F)c1 [fragment 46, 3,5-Bis(trifluoromethyl)benzoic acid NHS ester] |  |  |  | 1.3 | 0.9 | 11.4 |  |
| O=C(Oc1c(F)c(F)c(C(F)(F)F)c(F)c1F)c1cc(C(F)(F)F)cc(C(F)(F)F)c1 [fragment 47, 2,3,5,6-Tetrafluoro-4-(trifluoromethyl)phenyl 3,5-bis(trifluoromethyl)benzoate] |  |  |  | 0.9 | 1.1 | 0.9 |  |
| CC(C)(C)OC(=O)N=C(NC(=O)OC(C)(C)C)n1cccn1 [fragment 50, reference compound] |  |  |  |  |  |  | isoTOP-ABPP ratio, lysine Q14204_K1649 ([1]; 100 uM_231_sol_in vitro): 1.3; isoTOP-ABPP ratio, lysine Q12931_K699 ([2]; 100 uM_231_sol_in vitro): 1.1; isoTOP-ABPP ratio, lysine Q13033_K755 (STRN3 Striatin-3; 100 uM_231_sol_in vitro): 1.2 |
| NC(=O)c1cc(C(F)(F)F)cc(C(F)(F)F)c1 [fragment 51, reference compound] |  |  |  | 0.7 | 1.2 | 0.9 |  |
